# In patent publication US5929039A, “Method for treating cardiac dysfunction and pharmaceutical compositions useful therefor” (Baker Medical Research Institute, priority 1993, dated 1999):
# Read-outs that look alike come from different tables or passages of the source.
# Legend:
# [1] = tested on: [3H]-labelled inositol phosphate accumulation; experiment: [3H]-labelled inositol phosphate accumulation in isolated perfused rat hearts under ischaemia and post-ischaemic reperfusion; conditions: for average inhibition of [3H]-labelled inositol phosphate accumulation: vs 2 min post-ischaemic reperfusion without neomycin
# Experimental: (§1) Adult male sprague dawley rats 250-300 g were used. Where indicated, rats were treated with reserpine (5 mg/kg I.P. for 18 hrs prior to killing) to deplete endogenous noradrenaline stores.. Rats were heparinized 1 U/g I.P. 30 minutes prior to killing by decapitation. Hearts were rapidly excised and immediately chilled in ice-cold saline. Under ice-cold solution, hearts were cannulated via the ascending aorta as described by Langendorff and perfused retrogradely at a rate of 5 ml/min with HEPES-buffered Krebs solution equilibrated with 5%CO2 -95%O2 at 37° C. Initial perfusion was in a non-recirculating manner to remove internal blood. Hearts were allowed to warm up gradually and, when free of internal blood, transferred to a 37° C. water-jacketed organ bath containing carbogenated Krebs medium, and perfusion continued in a recirculating manner. Following a 15 minute equilibration period, hearts were labelled with [^3 H]-inositol, 2 μCi/ml for 2 h. Hearts were monitored throughout the labelling period for strong rhythmic beating.
# (§2) Following labelling, the [^3 H]-inositol-containing medium was removed, and replaced with Krebs medium containing propranolol (10^-6 M) and lithium chloride (50 mM) to block β-adrenergic receptors and to inhibit InsP metabolism by InsP 1'-phosphatase respectively (20). Hearts were perfused with propranolol, LiCi solution for 10 minutes prior to ischaemia. Antagonists, when administered, were included in this 10 minute preincubation. Normothermic global ischaemia was induced by terminating perfusion for various times up to 30 minutes. Reperfusion was examined following a 20 minute ischaemic period by resuming perfusion at 5 ml/min. Reactions were terminated by freezing hearts in liquid N2 following excision at the atrioventricular junction. Frozen ventricles were weighed and inositol phosphates extracted as described below.
# (§3) Inositol phosphates were extracted from ventricle samples in 3.5 ml ice-cold 5% trichloroacetic acid (TCA), 2.5 mM EDTA, 5 mM phytate solution, as described previously (21). Briefly, ventricles were homogenised with two 10 second passes of a "Polytron" homogenizer separated by 15 second periods on ice. Samples were homogenised further using a Potter-Elvejheim homogeniser followed by brief sonication. Homogenised samples were centrifuged (5000 rpm, 10 min, 4° C.) to remove TCA insoluble material. Supernatants were collected, and the remaining pellet re-extracted in 1.5 ml TCA, EDTA, phytate. Supernatants were pooled and freon, tri-n-ocylamine (1:1 v/v 0.75 ml:1 ml TCA solution) was added, mixed thoroughly, and phases separated by low speed centrifugation (2000 rpm, 10 min 4° C.). The resultant aqueous phase, containing inositol phosphates was collected and treated with proteinase K (50 μg/ml, 2 hr, 50° C.). This process was necessary to preserve the chromatography column. Treated samples were passed through a 1 ml Dowex-50 column (4% cross-linked 4-400 mesh size) and eluted with 1 ml water (22). Urea (0.05 M final) was added (23) and samples lyophilized prior to high performance liquid chromatography (HPLC) analysis. Recovery of inositol phosphates using this method was greater than 95% for each isomer, as estimated by addition of [^3 H]-labelled standards to extractions of unlabelled hearts.
# (§4) Inositol phosphates were separated by an anion-exchange HPLC system using a Whatman Partisil 10μ SAX column in a Waters Radial Compression Unit, employing a complex ammonium phosphate gradient, pH 3.8 from 0-2 M as described previously (24). Inositol phosphates were detected and quantitated using an on-line […] (model CR, Radiomatic Instruments) All peaks were identified by comparison with commercial standards. Nucleotide standards AMP, ADP, and ATP were run with samples to assess column performance.
# (§5) Values presented are mean ±SEM, for n=4 unless otherwise stated. Statistical analysis of results involved Students' unpaired "t-test" for all InsP data.
# [2] = tested on: hearts from reserpinized rats; experiment: Arrhythmic effect of thrombin under reperfusion conditions, perfused hearts from reserpinized rats; design: species or system rat; conditions: for VF% / VT%: n 9
# Experimental: (§6) A model of in situ perfused rat hearts subjected to 20 minutes coronary artery occlusion to induce ischaemia, followed by reperfusion was used to investigate reperfusion-induced arrhythmias.
# (§7) Rats (250-300 g) were anaesthetised (pentobarbitone 60 mg/kg, I.P.) and heparinised (200 U/rat I.V.) The thorax was then opened and a metal cannula (ID 1 mm) inserted and tied into the ascending aorta, to commence Langendorff perfusion in situ (31). The interval from opening the chest to commencing heart perfusion was between 50 and 70 seconds. The perfusate was Krebs buffer, with coronary flow controlled by a Ismatac peristaltic pump at a rate of 5 ml/g heart weight/min for the non-ischaemic perfusion. At this flow rate the coronary perfusion pressure was between 32-38 mmHg, measured by pressure transducer (Gould Statham model p23) connected to the sidearm of the perfusion line. Following aortic cancellation, pulmonary vessels were tied off. In some preparations, ventricular pressure was measured by inserting a Millar micro-tip transducer catheter into the left ventricular cavity via the apex. All parameters--coronary perfusion pressure, ventricular pressure, and epicardial ECG, were constantly recorded on a Grass model 7 polygraph. Two hearts were perfused and simultaneously studied.
# (§8) A silk suture (4.0) was positioned loosely around the left coronary artery 2-3 mm from its origin. Two silk releasing rings were placed around the suture for subsequent release of occlusion. Successful occlusion of the artery, inducing regional ischaemia, was indicated by increases in coronary perfusion pressure of at least 30%. Perfusion pressure was adjusted to non-ischaemic perfusion levels during the ischaemic period.
# (§9) Drugs were added to the perfusion via a Harvard Model 22 pump. The drug flow was less than 1% of perfusion flow to ensure constant perfusate parameters. Unless mentioned otherwise, the drugs were present 10 minutes before, and during the entire ischaemic and reperfusion periods.
# (§10) Heart preparations were allowed to stabilise for at least 20 minutes prior to commencing studies. Following 10 minute drug incubation, the left coronary artery was ligated to induce local ischaemia, for a period of 20 minutes. At the end of this ischaemic period, the ligature was released and hearts perfused at pre-ischaemic flow for a period of 5 minutes. Ventricular arrhythmias, occurring during ischaemia or during the first 2 minutes of reperfusion were defined according to the Lambeth Conventions (32).
# The finding that thrombin directly stimulated release of Ins(1,4,5)P3 in heart indicates the possibility that thrombin might cause arrhythmias directly via this mechanism. Experiments were performed using hearts from reserpinized rats so that arrhythmic events initiated by noradrenaline were eliminated. Reperfusion arrhythmias were not observed in hearts from reserpinized animals. […] Furthermore, these arrhythmias were inhibited by gentamicin, indicating a relationship to release of Ins(1,4,5)P3 (Table 2).
# [3] = tested on: in situ perfused rat hearts; conditions: for Reperfusion-induced arrhythmias VF % incidence / Reperfusion-induced arrhythmias VT % incidence: control 83
# Experimental: as §6, §7, §8, §9, §10
# Incidence of arrhythmias was analysed using a .chi.^2 test, with n≥8 for each group.
# [4] = tested on: Ins(1,4,5)P3 release; experiment: Ins(1,4,5)P3 mass in isolated perfused rat hearts, 2 min reperfusion after 20 min global ischaemia (competitive binding assay); conditions: for Ins(1,4,5)P3 mass: control 200 ± 18
# Experimental: as §1, §2, §3
# Mass of Ins(1,4,5)P3 was measured using a competitive binding assay (Amersham TRK 1000) essentially as described previously (26). Ventricle samples were prepared as described above except for the omission of [^3 H]-label during the 2 hr perfusion of hearts prior to ischaemia, and for the use of 5 mm ATP instead of phytate in the extraction procedure.
# Protein concentration was determined in aliquots of TCA pellet following InsP extraction using a modified Lowry method with Bovine Serum Albumin as a standard.
# as §5
# [5] = tested on: inositol phosphate accumulation in heart tissue; experiment: Inositol phosphate accumulation in healthy (normoxic) heart tissue; design: species or system rat; conditions: healthy heart tissue
# Experimental: as §1, §3, §4
# [6] = tested on: PI-PLC kidney me; conditions: membrane enzyme; from the literature (35); cited from earlier work
# [7] = tested on: PI-PLC kidney cy; conditions: cytosolic enzyme; from the literature (35); cited from earlier work
# [8] = tested on: PI-PLC heart rep; experiment: Inhibition of PI-PLC in hearts under reperfusion conditions; design: species or system rat
# Experimental: as §1, §2
# Mass of Ins(1,4,5)P3 was measured using a competitive binding assay (Amersham TRK 1000) essentially as described previously (26). […]
# [9] = tested on: Ins(1,4,5)P3 release; experiment: Thrombin-stimulated release of Ins(1,4,5)P3 in heart tissue
# [10] = hearts from reserpinized rats, no thrombin
# [11] = 0.5 mM, 2 min reperfusion after 20 min global ischaemia
# [12] = 5 mM, 2 min reperfusion after 20 min global ischaemia
# [13] = 25 μg/kg I.P. 48 h prior to experimentation
# [14] = thrombin 2 U/ml in perfusate, reserpinized hearts
molecule,measurement,setting,value
NC[C@H](O)c1ccc(O)c(O)c1 [noradrenaline],"release of [3H]-labelled Ins(1,4,5)P3 on reperfusion","[1]; 10^-4 M perfusion, reserpinized animals",reinstated
COc1cc2nc(N3CCN(C(=O)c4ccco4)CC3)nc(N)c2cc1OC [prazosin],2 minute reperfusion inositol phosphate response,[1]; 10 μM,inhibited
same,redistribution of [3H]-labelled inositol phosphates under ischaemic conditions,"[1]; global ischaemia, α1 adrenoceptor blockade",unaffected
COC(=O)[C@H]1[C@H]2C[C@@H]3c4[nH]c5cc(OC)ccc5c4CCN3C[C@H]2C[C@@H](OC(=O)c2cc(OC)c(OC)c(OC)c2)[C@@H]1OC [reserpine],rapid accumulation of inositol phosphates at 2 minutes post-ischaemic reperfusion,[1]; prior reserpine treatment (5 mg/kg I.P. 18 hrs),prevented
same,VF%,[2]; [10],0%
same,VT%,[2]; [10],44%
NCCCNCCCCNCCCN [spermine],effect on reperfusion arrhythmias,[3],inhibited
same,Reperfusion-induced arrhythmias VF % incidence,[3]; 0.5 mM,36%
same,Reperfusion-induced arrhythmias VT % incidence,[3]; 0.5 mM,63%
same,Reperfusion-induced arrhythmias VF % incidence,[3]; 5 mM,20%
same,Reperfusion-induced arrhythmias VT % incidence,[3]; 5 mM,30%
same,"inhibition of reperfusion-induced Ins(1,4,5)P3 release",[4],inhibitory
same,"Ins(1,4,5)P3 mass",[4]; [11],182 + 4 pmol/mg protein
same,"Ins(1,4,5)P3 mass",[4]; [12],160 ± 9 pmol/mg protein
CN[C@@H]1C[C@H]2O[C@@](C)([C@@H]1OC)n1c3ccccc3c3c4c(c5c6ccccc6n2c5c31)C(=O)NC4 [staurosporine],percentage incidence of reperfusion-induced arrhythmias vs untreated controls,[3]; 10^-7 M,did not significantly alter
same,Reperfusion-induced arrhythmias VF % incidence,[3]; .1 μM,69%
same,Reperfusion-induced arrhythmias VT % incidence,[3]; .1 μM,83%
Pertussis toxin [PTX],Reperfusion-induced arrhythmias VF % incidence,[3]; [13],10%
same,Reperfusion-induced arrhythmias VT % incidence,[3]; [13],40%
same,"Ins(1,4,5)P3 mass",[4]; [13],128 ± 28 pmol/mg protein
neomycin,rats showing both severe VT and VF throughout reperfusion,[3]; 0.05 mM,6 out of 8
same,Reperfusion-induced arrhythmias VF % incidence,[3]; 0.05 mM,70%
same,Reperfusion-induced arrhythmias VT % incidence,[3]; 0.05 mM,75%
same,rats exhibiting VT or VF on reperfusion,[3]; 0.5 mM,none of the 10 rats
same,heart rate and ventricular pressure,"[3]; 0.5 mM, after 10 minute incubation prior to occlusion",not significantly differing from control
same,Reperfusion-induced arrhythmias VF % incidence,[3]; 0.5 mM,0%
same,Reperfusion-induced arrhythmias VT % incidence,[3]; 0.5 mM,0%
same,Reperfusion-induced arrhythmias VF % incidence,[3]; 5 mM,0%
same,Reperfusion-induced arrhythmias VT % incidence,[3]; 5 mM,0%
same,"Ins(1,4,5)P3 mass","[4]; 0.05 mM, 2 min reperfusion after 20 min global ischaemia, mean±SEM, 4 hearts",184 ± 7 pmol/mg protein
same,"Ins(1,4,5)P3 mass",[4]; [11],121 ± 11 pmol/mg protein
same,"Ins(1,4,5)P3 mass",[4]; [12],104 ± 12 pmol/mg protein
same,effect on accumulations of Inositol phosphate1 and Inositol phosphate2,[5]; 5 mM,without effect
same,"reduction in accumulation of [3H]Ins(1,4,5)P3",[5]; 5 mM,20%
same,effect on inositol phosphate accumulation,[5]; concentrations lower than 5 mM,ineffective
same,EC50,[6],200 µM
same,EC50,[7],30 µM
same,EC50,[8],400 µM
same,inhibition of accumulation of [3H]-labelled inositol phosphates,"[1]; 0.05 mM, added 10 min prior to ischaemia, 2 min reperfusion",did not significantly inhibit
same,average inhibition of [3H]-labelled inositol phosphate accumulation,[1]; 0.5 mM,45%
same,average inhibition of [3H]-labelled inositol phosphate accumulation,[1]; 5 mM,55%
same,increase in sensitivity of myocardial tissue to neomycin during post-ischaemic reperfusion,[1]; reperfusion vs healthy heart,more than 10 fold
thrombin,"release of Ins(1,4,5)P3 in heart tissue",[9],directly stimulates release
same,reperfusion arrhythmias,"[2]; thrombin 2 U/ml added to perfusate, reserpinized hearts",high incidence
same,VF%,[2]; [14],67%
same,VT%,[2]; [14],89%
